Drawing on patent US20240360157A1, “TYK2 INHIBITORS” (BIOGEN MA INC., priority 2021, published 2024), this text covers IC50 for 20 compounds.

SMILES strings stand for the structures.

What all share (format): biochemical
Assay [1] has as its target human TYK2 catalytic kinase (JH1) domain (Homo sapiens (Human), UniProt P29597). Kind of assay: ADP-Glo Kinase Assay, recombinant TYK2 catalytic kinase (JH1) domain. As to conditions: recombinant JH1 domain 2 nM, 10 μM ATP, JAK3-974 peptide, mean, read-out: TYK2 biochem IC50 (nM) Mean. The method, then: (§1) Compounds of the disclosure were assessed for their ability to inhibit TYK2, JAK1, JAK2, and JAK3 activity. The inhibitory properties of the compounds of the disclosure described herein can be evidenced by testing in any one of the following protocols.
(§2) The kinase activity of recombinantly generated catalytic kinase (also known as JH1) domain of human JAK1, JAK2, JAK3 and TYK2 were evaluated in a plate-based assay using the ADP-Glo™ Kinase Assay platform. Specifically, 4 nM of recombinant JAK1 kinase domain is used to phosphorylate 50 μM of a JAK3-342 (sequence ALVDGYFRLTT) peptide in the presence of 35 μM ATP. Catalytic activities of recombinant JAK2, JAK3 and TYK2 kinase domain (0.2, 0.3 and 2 nM, respectively) are evaluated by the phosphorylation status of the JAK3-974 (50 μM; sequence LPLDKDYYVVR) peptide with the addition of ATP (15, 4 and 10 μM, respectively). The reactions proceed for 100 minutes and the catalytic activity is quantified by first depleting the unused ATP, converting the hydrolyzed ADP into ATP to generate luminescence in a luciferase reaction; which is the basis of the ADP-Glo platform. Compounds are tested at either 10 μM or 1 μM top concentration, 11 points of 3-fold dilution. The data is normalized and the percent activity versus log concentration of compound is fitted with a 4-parameter logistic model to generate a curve and an IC50 value.
In general terms: In ADP-Glo the light output rises with the ADP produced.

For assay [2], the target named is human JAK1 catalytic kinase (JH1) domain (Homo sapiens (Human), UniProt P23458). The assay can be described thus: ADP-Glo Kinase Assay, recombinant JAK1 catalytic kinase (JH1) domain. The conditions noted are these: recombinant JH1 domain 4 nM, 35 μM ATP, JAK3-342 peptide, mean, read-out: JAK1 biochem IC50 (nM) Mean. The method, then:
as §1, §2

Assay [3] concerns the target human JAK2 catalytic kinase (JH1) domain (Homo sapiens (Human), UniProt O60674). Kind of assay: ADP-Glo Kinase Assay, recombinant JAK2 catalytic kinase (JH1) domain. The conditions noted are these: recombinant JH1 domain 0.2 nM, 15 μM ATP, JAK3-974 peptide, mean, read-out: JAK2 biochem IC50 (nM) Mean. The method, then:
as §1, §2

Assay [4] addresses human JAK3 catalytic kinase (JH1) domain (Homo sapiens (Human), UniProt P52333). Kind of assay: ADP-Glo Kinase Assay, recombinant JAK3 catalytic kinase (JH1) domain. As to conditions: recombinant JH1 domain 0.3 nM, 4 μM ATP, JAK3-974 peptide, mean, read-out: JAK3 biochem IC50 (nM) Mean. As to the method: as §1, §2

human JAK2 catalytic kinase (JH1) domain, sequence (O60674 849-1124): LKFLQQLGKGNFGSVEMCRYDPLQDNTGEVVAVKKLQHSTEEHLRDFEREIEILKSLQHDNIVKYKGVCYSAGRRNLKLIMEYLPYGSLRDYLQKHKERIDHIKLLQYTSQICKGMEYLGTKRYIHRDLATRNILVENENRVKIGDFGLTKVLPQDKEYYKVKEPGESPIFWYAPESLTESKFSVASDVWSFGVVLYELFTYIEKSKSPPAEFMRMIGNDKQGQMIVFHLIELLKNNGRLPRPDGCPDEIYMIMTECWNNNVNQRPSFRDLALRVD
human TYK2 catalytic kinase (JH1) domain, sequence (P29597 897-1176): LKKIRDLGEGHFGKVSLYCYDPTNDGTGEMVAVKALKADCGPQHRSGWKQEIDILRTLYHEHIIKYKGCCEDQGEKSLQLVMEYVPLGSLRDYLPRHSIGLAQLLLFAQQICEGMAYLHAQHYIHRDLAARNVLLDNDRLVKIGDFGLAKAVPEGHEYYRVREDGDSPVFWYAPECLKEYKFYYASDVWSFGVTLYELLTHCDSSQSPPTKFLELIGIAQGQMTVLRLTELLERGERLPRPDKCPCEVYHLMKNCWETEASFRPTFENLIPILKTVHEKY
human JAK1 catalytic kinase (JH1) domain, sequence (P23458 875-1153): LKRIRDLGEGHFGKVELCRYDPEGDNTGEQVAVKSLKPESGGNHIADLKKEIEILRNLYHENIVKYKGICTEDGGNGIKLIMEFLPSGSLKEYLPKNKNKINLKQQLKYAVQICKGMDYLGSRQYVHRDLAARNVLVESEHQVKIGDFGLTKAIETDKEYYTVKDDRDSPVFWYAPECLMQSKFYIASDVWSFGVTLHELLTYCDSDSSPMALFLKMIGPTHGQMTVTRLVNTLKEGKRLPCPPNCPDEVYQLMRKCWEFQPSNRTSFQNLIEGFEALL
human JAK3 catalytic kinase (JH1) domain, sequence (P52333 822-1111): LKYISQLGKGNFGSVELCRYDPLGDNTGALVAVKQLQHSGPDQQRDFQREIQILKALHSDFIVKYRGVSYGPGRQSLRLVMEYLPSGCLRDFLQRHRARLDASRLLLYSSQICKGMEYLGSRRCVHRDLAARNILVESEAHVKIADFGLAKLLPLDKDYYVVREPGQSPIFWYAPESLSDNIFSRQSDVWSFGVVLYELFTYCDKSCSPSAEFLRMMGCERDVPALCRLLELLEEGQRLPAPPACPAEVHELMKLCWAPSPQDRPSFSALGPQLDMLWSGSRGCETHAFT

By IC50 is commonly meant the concentration that inhibits the measured activity by half. `Cn1cc(-c2cc3c(N4CC5CCC(C4)N5S(=O)(=O)C4CC4)ccnn3c2)cn1` [Example 189, 4-(8-(cyclopropylsulfonyl)-3,8-diazabicyclo[3.2.1]octan-3-yl)-6-(1-methyl-1H-pyrazol-4-yl)pyrrolo[1,2-b]pyridazine]: the IC50 in assay [1] turned out to be 46.5 nM; in assay [2] it was 1210 nM; in assay [3] it was 208 nM; in assay [4], 1020 nM.
In the same order, the values of `O=C(C1CC1)N1C2CCC1CN(c1ncnc3[nH]c(-c4cnn(C(F)F)c4)cc13)C2` [Example 219, cyclopropyl(3-(6-(1-(difluoromethyl)-1H-pyrazol-4-yl)-7H-pyrrolo[2,3-d]pyrimidin-4-yl)-3,8-diazabicyclo[3.2.1]octan-8-yl)methanone] are 23.6 nM, 232 nM, 752 nM and 698 nM.
Regarding `O=C(C1C[C@H]1F)N1C2CCC1CN(c1ncnc3[nH]c(-c4ccncc4F)cc13)C2` (some centres unmarked) [Example 232], the IC50 was 13.1 nM in assay [1], 226 nM in assay [2], 322 nM in assay [3] and 848 nM in assay [4].
In the same order, the values of `Cn1cc(-c2cc3c(N4CC5CCC(C4)N5C(=O)[C@H]4C[C@H]4F)ncnn3c2)cn1` (racemic) [Example 60, Rac-((1R,2R)-2-fluorocyclopropyl)(3-(6-(1-methyl-1H-pyrazol-4-yl)pyrrolo[2,1-f][1,2,4]triazin-4-yl)-3,8-diazabicyclo[3.2.1]octan-8-yl)methanone] are 563 nM, 1340 nM, 8090 nM and 3080 nM.
In the same order, the values of `Cn1cc(-c2cc3c(N4CC5CCC(C4)N5S(=O)(=O)[C@@H]4CC4(F)F)ccnn3c2)cn1` [Example 198, 4-(8-(((R)-2,2-difluorocyclopropyl)sulfonyl)-3,8-diazabicyclo[3.2.1]octan-3-yl)-6-(1-methyl-1H-pyrazol-4-yl)pyrrolo[1,2-b]pyridazine] are 15.1 nM, 266 nM, 95 nM and 652 nM.
In the same order, the values of `CN(C)c1ccc(-c2cc3c(N4CC5CCC(C4)N5C(=O)[C@@H]4C[C@H]4F)ncnc3[nH]2)cn1` [Example 226, (3-(6-(6-(dimethylamino)pyridin-3-yl)-7H-pyrrolo[2,3-d]pyrimidin-4-yl)-3,8-diazabicyclo[3.2.1]octan-8-yl)((1S,2R)-2-fluorocyclopropyl)methanone] are 14.9 nM, 116 nM, 244 nM and 468 nM.
Take `Cn1cc(-c2cc3c(N4CC5CCC(C4)N5C(=O)[C@@H]4C[C@H]4F)ncnc3[nH]2)cn1` [Example 235, ((1S,2R)-2-fluorocyclopropyl)(3-(6-(1-methyl-1H-pyrazol-4-yl)-7H-pyrrolo[2,3-d]pyrimidin-4-yl)-3,8-diazabicyclo[3.2.1]octan-8-yl)methanone]: the IC50 in assay [1] stood at 5.3 nM; in assay [2] it was 117 nM; in assay [3] it was 106 nM; in assay [4], 338 nM.
In the same order, the values of `COc1cc(-c2cc3c(N4CC5CCC(C4)N5C(=O)[C@@H]4C[C@H]4F)ccnn3c2)ccn1` [Example 88, ((1S,2R)-2-fluorocyclopropyl)(3-(6-(2-methoxypyridin-4-yl)pyrrolo[1,2-b]pyridazin-4-yl)-3,8-diazabicyclo[3.2.1]octan-8-yl)methanone] are 1.9 nM, 23 nM, 46 nM and 604 nM.
In the same order, the values of `O=C(C1CC1)N1C2CCC1CN(c1ncnn3cc(-c4cnn(C5CCOCC5)c4)cc13)C2` [Example 153] are 99.2 nM, 1280 nM, 1520 nM and 1900 nM.
In the same order, the values of `O=C(C1CC1)N1C2CCC1CN(c1c(F)cnn3cc(-c4cnn(C(F)F)c4)cc13)C2` [Example 140, cyclopropyl(3-(6-(1-(difluoromethyl)-1H-pyrazol-4-yl)-3-fluoropyrrolo[1,2-b]pyridazin-4-yl)-3,8-diazabicyclo[3.2.1]octan-8-yl)methanone] are 56 nM, 834 nM, 1480 nM and 738 nM.
In the case of `O=C([C@@H]1C[C@H]1F)N1C2CCC1CN(c1ccnn3cc(C4CC4)cc13)C2` [Example 24, (3-(6-cyclopropylpyrrolo[1,2-b]pyridazin-4-yl)-3,8-diazabicyclo[3.2.1]octan-8-yl)((1S,2R)-2-fluorocyclopropyl)methanone], the IC50 in assay [1] came out at 164 nM; in assay [2] it was 2740 nM; in assay [3], 5900 nM; in assay [4], 9080 nM.
In the same order, the values of `O=C([C@@H]1C[C@H]1F)N1C2CCC1CN(c1ccnn3cc(-c4ccnc(C(F)F)c4)cc13)C2` [Example 101, (3-(6-(2-(difluoromethyl)pyridin-4-yl)pyrrolo[1,2-b]pyridazin-4-yl)-3,8-diazabicyclo[3.2.1]octan-8-yl)((1S,2R)-2-fluorocyclopropyl)methanone] are 1.4 nM, 22 nM, 27 nM and 541 nM.
In the same order, the values of `Cn1cc(-c2cc3c(N4CC5CCC(C4)N5C(=O)C4(F)CC4)ccnc3[nH]2)c(F)n1` [Example 243, (3-(2-(3-fluoro-1-methyl-1H-pyrazol-4-yl)-1H-pyrrolo[2,3-b]pyridin-4-yl)-3,8-diazabicyclo[3.2.1]octan-8-yl)(1-fluorocyclopropyl)methanone] are 2.8 nM, 79 nM, 26 nM and 27 nM.
In the same order, the values of `COc1cc(-c2cc3c(N4CC5CCC(C4)N5C(=O)[C@@H]4C[C@H]4F)ncnn3c2)ccn1` [Example 89, ((1S,2R)-2-fluorocyclopropyl)(3-(6-(2-methoxypyridin-4-yl)pyrrolo[2,1-f][1,2,4]triazin-4-yl)-3,8-diazabicyclo[3.2.1]octan-8-yl)methanone] are 28.2 nM, 236 nM, 856 nM and 4240 nM.
Regarding `Cn1cc(-c2cc3c(N4CC5CCC(C4)N5C(=O)C4(F)CC4)ncnn3c2)cn1` [Example 64, (1-fluorocyclopropyl)(3-(6-(1-methyl-1H-pyrazol-4-yl)pyrrolo[2,1-f][1,2,4]triazin-4-yl)-3,8-diazabicyclo[3.2.1]octan-8-yl)methanone], the half-maximal inhibitory concentration (IC50) turned out to be 289 nM in assay [1], 1150 nM in assay [2], 5210 nM in assay [3] and 1110 nM in assay [4].
In the same order, the values of `Cn1cc(-c2cc3c(N4CC5CCC(C4)N5C(=O)[C@@H]4CC4(F)F)ncnn3c2)cn1` [Example 83, ((S)-2,2-difluorocyclopropyl)(3-(6-(1-methyl-1H-pyrazol-4-yl)pyrrolo[2,1-f][1,2,4]triazin-4-yl)-3,8-diazabicyclo[3.2.1]octan-8-yl)methanone] are 333 nM, 652 nM, 5730 nM and 1640 nM.
In the same order, the values of `Cn1cc(-c2cc3c(N4CC5CCC(C4)N5C(=O)[C@H]4CC4(F)F)ncnn3c2)cn1` [Example 84, ((R)-2,2-difluorocyclopropyl)(3-(6-(1-methyl-1H-pyrazol-4-yl)pyrrolo[2,1-f][1,2,4]triazin-4-yl)-3,8-diazabicyclo[3.2.1]octan-8-yl)methanone] are 55 nM, 1800 nM, 1220 nM and 6890 nM.
Regarding `CC(C)n1ncc(-c2cc3c(N4CC5CCC(C4)N5C(=O)C4CC4)ncnn3c2)c1F` [Example 162], the IC50 came out at 94.9 nM in assay [1], 210 nM in assay [2], 1620 nM in assay [3] and 1250 nM in assay [4].
In the same order, the values of `COc1cc(-c2cc3c(N4CC5CCC(C4)N5C(=O)[C@@H]4C[C@H]4F)ccnn3c2)c(F)cn1` [Example 27, (3-(6-(5-fluoro-2-methoxypyridin-4-yl)pyrrolo[1,2-b]pyridazin-4-yl)-3,8-diazabicyclo[3.2.1]octan-8-yl)((1S,2R)-2-fluorocyclopropyl)methanone] are 16 nM, 277 nM, 325 nM and 4000 nM.
Take `O=C(C1CC1)N1C2CCC1CN(c1ncnn3cc(-c4cnn(C(F)F)c4)cc13)C2` [Example 150]: the concentration for half-maximal inhibition (IC50) in assay [1] stood at 190 nM; in assay [2], 1850 nM; in assay [3] it was 3370 nM; in assay [4] it was 5620 nM.
